Reference: patent US7060721B1, “Imidazole compounds and medicinal use thereof” (Fujisawa Pharmaceutical Co., Ltd., priority 1998, dated 2006)

Assays:
db/db mice = assay: Blood sugar level depressing activity in db/db mice; format: in vivo; conditions: female db/db mice; dose 3.2 mg/kg; drug-mixed diet given for 14 days; difference between db/db control group and +/+ mice taken as 100%
Procedure: (Blood Sugar Level Depressing Activity in db/db Mice)
Female C57BL/KsJ-dbm db+/db+, C57BL/KsJ-dbm +m/+m (Jackson Laboratory) mice (5 weeks old) were purchased and subjected to the test after 2–3 weeks of acclimating period.
The test drug was mixed with a powder diet (CE-2, Clea Japan, Inc.) in a mortar. In the case of administration in 100 mg/kg, the mixing proportion was 0.1%, in the case of 30 mg/kg, the proportion was 0.03% and in the case of 10 mg/kg, the proportion was 0.01%. The diet was changed twice a week for each group. The amount of the diet given and the amount left were recorded and the diet intake was calculated by determining the difference.
The female db/db mice were grouped according to body weight, blood sugar level and triglyceride concentration in plasma. […] The blood sugar value, triglyceride concentration in plasma and insulin concentration in plasma were measured at day 0 and day 14, and blood sugar value and triglyceride concentration in plasma were measured at day 7. Body weight was measured at day 0, day 7 and day 14. […]
Blood sugar value was measured using 10–15 μl of plasma and in accord with glucose oxidase method (glucose CII-Test Wako, Wako Pure Chemicals Co., Ltd.). The triglyceride concentration in plasma was measured using 10–15 μl of plasma and in accord with GPO-p-chlorophenol method (triglyceride G-Test Wako) or GPO-DAOS method (triglyceride E-Test Wako). […]

melting point [°C]	Compound	Blood sugar decrease (%) (db/db mice)
173 to 175	CCC/C=C/S(=O)(=O)NC(=O)/C=C/c1c(Cl)nc(CC)n1Cc1ccc(C#Cc2ccccc2)cc1Cl [Example 58, (E)-3-(4-chloro-1-(2-chloro-4-(phenylethynyl)benzyl)-2-ethylimidazol-5-yl)-N-((E)-1-penten-1-ylsulfonyl)-2-propenamide]	
237 to 238	CSc1ccc(Cn2c(C)nc(Cl)c2/C=C/C(=O)NS(=O)(=O)/C=C/c2ccccc2)c(Cl)c1 [Example 27, (E)-3-(4-chloro-1-(2-chloro-4-(methylthio)benzyl)-2-methylimidazol-5-yl)-N-(((E)-2-phenylethenyl)sulfonyl)-2-propenamide]	
156 to 157	CCCCCOc1ccc(Cn2c(C)nc(Cl)c2/C=C(\C)C(=O)NS(=O)(=O)/C=C/c2ccccc2)c(Cl)c1 [Example 71, (E)-3-(4-chloro-1-(2-chloro-4-(1-pentyloxy)benzyl)-2-methylimidazol-5-yl)-2-methyl-N-((E)-2-phenylethenesulfonyl)-2-propenamide]	
207 to 209	CCCCCS(=O)(=O)NC(=O)/C=C/c1c(Cl)nc(C)n1Cc1ccc(C#Cc2ccccc2)cc1Cl [Example 44, (E)-3-(4-chloro-1-(2-chloro-4-(phenylethynyl)benzyl)-2-methylimidazol-5-yl)-N-(1-pentanesulfonyl)-2-propenamide]	
109 to 111	CCCCCOc1ccc(Cn2c(C)nc(Cl)c2COC(=O)NS(=O)(=O)c2ccc(C)cc2)c(Cl)c1 [Example 73, (4-chloro-1-(2-chloro-4-(1-pentyloxy)benzyl)-2-methyl-1H-imidazol-5-yl)methyl N-(4-methylbenzenesulfonyl)carbamate]	
168 to 169	CCCCCOc1ccc(Cn2c(/C=C(\CCCCC)C(=O)NS(=O)(=O)/C=C/c3ccccc3)cnc2C)c(Cl)c1 [Example 68, (E)-3-(1-(2-chloro-4-(1-pentyloxy)benzyl)-2-methylimidazol-5-yl)-2-(1-pentyl)-N-((E)-2-phenylethenesulfonyl)-2-propenamide]	

More lines, now with the values behind:

Compound	melting point [°C]	Blood sugar decrease (%) (db/db mice)
Cc1ccc(S(=O)(=O)NC(=O)/C=C/c2c(Cl)nc(C)n2Cc2ccc(-c3ccccc3)cc2Cl)cc1 [Compound A, (E)-3-[4-chloro-1-(2-chloro-4-phenylbenzyl)-2-methylimidazol-5-yl]-N-((4-methylbenzene)sulfonyl)-2-propenamide]		63
CCCCCOc1ccc(Cn2c(C)nc(Cl)c2C(=O)NS(=O)(=O)/C=C/c2ccccc2)c(Cl)c1 [Example 72, 4-chloro-1-(2-chloro-4-(1-pentyloxy)benzyl)-2-methyl-5-((E)-2-phenylethenesulfonyl-carbamoyl)-1H-imidazole]	107 to 110	
CCCCCOc1ccc(Cn2c(/C=C(\C)C(=O)NS(=O)(=O)/C=C/c3ccccc3)cnc2C)c(Cl)c1 [Example 70, (E)-3-(1-(2-chloro-4-(1-pentyloxy)benzyl)-2-methylimidazol-5-yl)-2-methyl-N-((E)-2-phenylethenesulfonyl)-2-propenamide]	143 to 145	
CCCCCS(=O)(=O)NC(=O)/C=C/c1c(Cl)nc(C)n1Cc1ccc(NC(=O)OC(C)(C)C)cc1Cl [Example 49, (E)-3-(1-(4-(tert-butoxycarbonylamino)-2-chlorobenzyl)-4-chloro-2-methylimidazol-5-yl)-N-(1-pentanesulfonyl)-2-propenamide]	202 to 204	
Cc1nc(Cl)c(/C=C/C(=O)NS(=O)(=O)c2ccc(Cl)s2)n1Cc1ccc(-c2ccccc2)cc1Cl [Example 13, (E)-3-(4-chloro-1-(2-chloro-4-phenylbenzyl)-2-methylimidazol-5-yl)-N-((5-chloro-2-thienyl)sulfonyl)-2-propenamide]	229 to 233	
Cc1nc(Cl)c(/C=C/C(=O)NS(=O)(=O)/C=C/c2ccccc2)n1Cc1ccc([N+](=O)[O-])cc1Cl [Example 33, (E)-3-(4-chloro-1-(2-chloro-4-nitrobenzyl)-2-methylimidazol-5-yl)-N-(((E)-2-phenylethenyl)sulfonyl)-2-propenamide]	199 to 201	
CCc1nc(Cl)c(/C=C/C(=O)NS(=O)(=O)/C=C/c2ccccc2)n1Cc1ccc(Br)cc1Cl [Example 53, (E)-3-(1-(4-bromo-2-chlorobenzyl)-4-chloro-2-ethylimidazol-5-yl)-N-((E)-2-phenylethenesulfonyl)-2-propenamide]	209 to 210	
CCCCCOc1ccc(Cn2c(/C=C(\Cc3ccccc3)C(=O)NS(=O)(=O)/C=C/c3ccccc3)cnc2C)c(Cl)c1 [Example 67, (E)-2-benzyl-3-(1-(2-chloro-4-(1-pentyloxy)benzyl)-2-methylimidazol-5-yl)-N-((E)-2-phenylethenesulfonyl)-2-propenamide]	171 to 172	
